# Test results as given in US20260146232A1, “METHODS FOR PROMOTING HOMING AND ENGRAFTMENT OF HEMATOPOIETIC STEM CELLS” (The Trustees of Indiana University, priority 2022, published 2026).
# Tests used:
# human CB CD34+ cells [1] = assay: Homing assay of treated human CB CD34+ cells in NSG mice; type: in vivo; settings: 500,000 cells
# Procedure: Homing assay. Homing of human CB CD34^+ cells was evaluated in NSG mice. Molecular compounds treated or siRNA transfected human CB CD34+ cells (500,000 for each mouse) were intravenously injected into sub-lethally irradiated (350 cGy) NSG mice. After 24 h, these recipient mice were sacrificed, BM cells from each mouse were collected. Cells were stained with anti-human CD45 antibody, then resuspended in 1% formaldehyde buffer. Flow cytometry analysis was performed to determine the percentage of human CD45^+ cells. BM cells from non-transplanted NSG mice served as negative controls.
# [2] = system: phenotypic HSC (CD34+ CD38- CD45RA- CD90+ CD49f+); assay: Chemotaxis (transwell migration) assay toward SDF-1, phenotypic HSCs; type: cell-based, human
# Procedure: (§1) Chemotaxis assay. Chemotaxis assays were performed in Costar 24-well trans-well plates with 6.5 mm diameter inserts with 5.0 μm pores (Corning, NY, USA). Briefly, 650 μL of IMDM medium (37° C.) that contained 0.5% bovine serum albumin (Sigma-Aldrich) and SDF-1 (0, 50 ng/mL) was added to the bottom well. Cells were suspended at 1×10^5 cells/100 μL in IMDM medium and loaded to the upper chamber of the trans-well. Trans-well plates were placed in a 37° C. incubator with 95% humidity and 5% CO2 for 4 hours. Percent migration was measured using flow cytometry with number of cells in the bottom chamber divided by number of cells placed in the upper chamber. To calculate the percent migration of CB HSCs, phenotypic HSCs was determined by surface staining and flow cytometry analysis. Human CB HSC chemotaxis was calculated as number of HSCs in the bottom chamber divided by number of HSCs loaded in the upper chamber. For AMD3100 administration, cells were treated with 5 μg/mL AMD3100 (239820, Sigma-Aldrich) for 30 min right before the chemotaxis assay.
# CXCR4 [3] = assay: Surface CXCR4 protein level (MFI) by flow cytometry; type: cell-based, human; settings: for CXCR4 protein level: siRNA knockdown
# Text: (§2) Human CD34^+ CB cell collection and culture. Umbilical CB units were supplied by Cleveland Cord Blood Bank and CordUse, Orlando, FL, USA. All studies were approved by the institutional review board of the IUSM. Mononuclear cells were isolated by density gradient centrifugation and CD34^+ cells were isolated by immunomagnetic selection kit (Miltenyi Biotec, 130-046-702). […] For molecular compound treatment, all reagents were ordered from Cayman Chemical (Ann Arbor, MI, USA). Briefly, molecular compounds were added in the initiation of human CB CD34^+ cells culture, the time and concentration of each molecular compound for cell treatment was shown in figure legends.
# Flow cytometry. Fresh or cultured CB cells were sorted for different phenotypes by using the following antibodies. Antibodies were used to detect CD34 (BV786, BD Biosciences, 744741), CD34 (FITC, BD Biosciences, 340668), CD45RA (Taxe-red, BD Biosciences, 562298), CD90 (BV421, BD Biosciences, 562556), CD49f (cy5.5, BD Biosciences, 562495), CD38 (PE, BD Biosciences, 560981). CD3 (BV421, BD Biosciences, 562427), CD33 (PE, BD Biosciences, 555450), CD19 (PE, BD Biosciences, 555413), CXCR4 (APC, BD Biosciences, 555976) and CD45 (APC, BD Biosciences, 555485). Gating strategy of phenotypic HSCs were shown in supplementary FIG. 2B.
# human CB CD34+ cells [4] = assay: Chemotaxis (transwell migration) assay toward SDF-1, CB CD34+ cells; type: cell-based
# Procedure: as §1
# m6A labelled CXCR4 = assay: m6A enrichment on CXCR4 (m6A IP combined with RT-qPCR); type: cell-based, human
# Procedure: M6A-RNA Immunoprecipitation. MeRIP analysis was used as previously described^15. Briefly, the total RNAs were extracted, and then RNA concentration was adjusted to 1 μg/μl. RNA was fragmented into ˜100 nt size and these RNA were immunoprecipitated with the anti-m6A antibody according to the standard protocol of the Magna MeRIP m6A Kit (Merck Millipore, 17-10499). M6A enrichment was determined by qPCR analysis.
# FTO = assay: Relative FTO expression level by realtime PCR; type: cell-based; settings: AGII 4 μM, 20 hours, human CB CD34+ cells
# Procedure: Human CD34^+ CB cell collection and culture. Umbilical CB units were supplied by Cleveland Cord Blood Bank and CordUse, Orlando, FL, USA. All studies were approved by the institutional review board of the IUSM. Mononuclear cells were isolated by density gradient centrifugation and CD34^+ cells were isolated by immunomagnetic selection kit (Miltenyi Biotec, 130-046-702). The purity of human CD34^+ CB cells was over 90% and the cells were cultured in StemSpanII serum-free medium ([…] Technologies, 09650) supplemented with 100 ng/mL stem cell factor (SCF), 100 ng/mL FMS-like tyrosine kinase 3 ligand (Flt3L) and 100 ng/mL thrombopoietin (TPO). For molecular compound treatment, all reagents were ordered from Cayman Chemical (Ann Arbor, MI, USA). Briefly, molecular compounds were added in the initiation of human CB CD34^+ cells culture, the time and concentration of each molecular compound for cell treatment was shown in figure legends.
# RNA extraction and real-time PCR. After cells were harvested by FACS, RNA was extracted by a RNeasy Mini Kit following manufacturer's protocol (Qiagen, 74106). Total RNA was reverse-transcribed by use of Superscript III kit (ThermoFisher, 18080093). Quantitative real-time PCR reactions were performed by SYBR Green PCR Master Mix (Thermo Fisher, Florence, KY, USA) and an Agilent Mx3000P QPCR System. […]
# human CB CD34+ cells [5] = assay: Long-term engraftment / limiting dilution analysis (LDA) in NSG mice; type: in vivo
# Procedure: Limiting dilution analysis (LDA). Frequency of human SCID repopulating cells (SRCs) was determined by LDA as reported before. Increasing doses of GFP overexpressing CD34^+ cells (2500, 5000 or 10000 cells) were intravenously injected into sublethally irradiated NSG recipient mice (350 cGy; 137Cs source, single dose). Four months after transplantation, the percentage of GFP^+ human CD45^+ cell chimerism was analyzed by immunostaining and flow cytometry. For long-term engraftment assays that assess the self-renewal capacity of HSC, 3×10^6 BM cells from primary recipients of the 10000-cell group were intravenously transplanted into secondary sub-lethally irradiated NSG recipient mice.
# CB CD34+ cells = assay: Colony-forming unit (CFU) assay; type: cell-based, human; settings: AGII-treated CB CD34+ cells
# YTHDF2 and CXCR4 = assay: YTHDF2 binding level of CXCR4 (YTHDF2 RIP combined with RT-qPCR); type: cell-based, human
# Procedure: RNA immunoprecipitation. RNA immunoprecipitation was performed as previously described^14. Briefly, 0.5-1×10^6 collected human CD34^+ cells were lysed in buffer A (20 mM Tris-Cl, pH 8.0; 100 mM NaCl, 1 mM EDTA, 0.5% NP-40, protease and RNase inhibitors) for 20 min at 4° C. After centrifugation for 5 min, 1/10th volume of cell lysate was saved as input. Anti-YTHDF2 (Abcam, ab220163) was prebound to the protein A/G beads and then reacted with the rest of the cell lysate overnight at 4° C. After elution from the beads, the RNA samples were precipitated with ethanol and dissolved in RNase-free water. RNAs were further purified with RNA Clean and Concentrator-5 (Zymo, R1013). The relative CXCR4 enrichment was determined by calculating the Ct values of the RIP sample relative to the input sample. Expression of non-m6a housekeeping gene ACTB was used as an internal control. Data are shown as relative binding level normalized to levels in sh-Control group, set to 1.
# YTHDF2 = assay: Relative YTHDF2 expression level in human CB CD34+ cells; type: cell-based; settings: siRNA 2 μM electroporated into human CB CD34+ cells
# Text: as §2
# (§3) RNA extraction and real-time PCR. After cells were harvested by FACS, RNA was extracted by a RNeasy Mini Kit following manufacturer's protocol (Qiagen, 74106). Total RNA was reverse-transcribed by use of Superscript III kit (ThermoFisher, 18080093). Quantitative real-time PCR reactions were performed by SYBR Green PCR Master Mix (Thermo Fisher, Florence, KY, USA) and an Agilent Mx3000P QPCR System. Expression of housekeeping gene GAPDH was used as an internal control. Data are shown as relative mRNA level normalized to levels in vehicle control, set to 1.
# CXCR4 [6] = assay: CXCR4 RNA level in human CB CD34+ cells; type: cell-based; settings: YTHDF2 knockdown by siRNA
# Procedure: as §3, with “1. SEQ ID NO: 1-16 are the primer sequences utilized.” for “1.”
# [7] = AGII-treated human CB CD34+ cells
substance,measurement,setting,value
"Angiotensin II [AGII, peptide hormone of the RAAS system]",homing to mouse BM,"human CB CD34+ cells [1]; 20 hours AGII treatment, 24 h after transplantation",dramatically promoted
same,chemotaxis to SDF-1 of HSCs,[2]; AGII-treated cells,greatly enhanced
same,protein level of CXCR4,CXCR4 [3]; AGII-treated vs vehicle,upregulates
same,human CB CD34+ cell migration toward graded doses of SDF-1,human CB CD34+ cells [4]; AGII-treated cells,greatly enhanced
same,relative m6A labeled CXCR4 level,m6A labelled CXCR4; [7],decreased
same,FTO expression,FTO,significantly upregulated
same,engraftment in NSG recipients vs control,"human CB CD34+ cells [5]; AGII-treated cells, 10,000 cells, PB and BM",significantly increased
same,human myeloid and lymphoid cell chimerism,"human CB CD34+ cells [5]; AGII-treated cells, BM 4 months",increased
same,SRC frequency (Poisson distribution analysis),"human CB CD34+ cells [5]; AGII-treated cells, control 1/3984",1/1280
same,number of SRCs,"human CB CD34+ cells [5]; AGII-treated cells, control 251",781 SRCs
same,engraftment in secondary transplantation vs control,"human CB CD34+ cells [5]; AGII-treated cells, secondary NSG mice at 4 months",enhanced engraftment
same,colony output vs vehicle,CB CD34+ cells,no significant difference
same,binding between YTHDF2 and CXCR4,YTHDF2 and CXCR4; [7],decreased
5′-TTGGCTATTGGGAACGTCCTT-3′ (partner strand not given here) [siRNA],human CB CD34+ cell homing in NSG mice,"human CB CD34+ cells [1]; siRNA transfected, 24 hours",enhanced
same,migration to SDF-1 in the HSC population,"[2]; siRNA transfected cells, SDF-1 50 ng/mL",Enhanced migration
same,YTHDF2 expression at the RNA and protein level,YTHDF2,efficiently downregulated
same,CXCR4 protein level,CXCR4 [3]; HSCs (CD34+ CD38- CD45RA- CD49f+ CD90+),notably upregulated
same,CXCR4 protein level,CXCR4 [3]; human CB CD34+ cells,notably upregulated
same,migration of CB CD34+ cells to SDF-1,human CB CD34+ cells [4]; siRNA transfected cells,significant migration
same,RNA level of CXCR4,CXCR4 [6],significantly upregulated
same,expression level of m6A labelled CXCR4,m6A labelled CXCR4; YTHDF2 knockdown by siRNA,greatly increased
same,engraftment in secondary NSG mice,human CB CD34+ cells [5]; BM cells from siRNA transfected group,enhanced engraftment
same,increase in number of functionally detectable SRCs compared with control,human CB CD34+ cells [5]; siRNA transfected group,~4 fold
same,SRC frequency (Poisson distribution analysis),"human CB CD34+ cells [5]; siRNA transfected group, control 1/2439",1/667
same,number of SRCs,"human CB CD34+ cells [5]; siRNA transfected group, control 410",1478 SRCs in 1×10^6 cells
same,human myeloid and B-cell chimerism,"human CB CD34+ cells [5]; siRNA transfected, BM 4 months",significantly increased
same,engraftment vs control group,"human CB CD34+ cells [5]; siRNA transfected, PB at 2 and 4 months, BM at 4 months",enhanced engraftment
same,binding level of YTHDF2 and CXCR4,YTHDF2 and CXCR4; YTHDF2 knockdown by siRNA,significantly decreased
